From ChEMBL document CHEMBL1144983, “Synthesis and affinity of a possible byproduct of electrophilic radiolabeling of [123I]IBZM” (Bioorg Med Chem Lett, 2003)

How the values were obtained:
Assay type in all cases: organism-based
[1] = target: T1, D(2) dopamine receptor (Rattus norvegicus, UniProt P61169); experiment: In vivo inhibitory activity against dopamine (D2) receptor in rat caudate-putamen tissue
[2] = target: T2, D(1A) dopamine receptor (Rattus norvegicus, UniProt P18901); experiment: In vivo inhibitory activity against dopamine (D1) receptor in rat caudate-putamen tissue
[3] = target: T2, D(1A) dopamine receptor; experiment: In vivo binding affinity against dopamine (D1) receptor in rat caudate-putamen tissue using [3H]SCH-23390 as radioligand
[4] = target: T1, D(2) dopamine receptor; experiment: In vivo binding affinity against dopamine (D2) receptor in rat caudate-putamen tissue using [3H]nemonapride as radioligand

T1 sequence (P61169 whole entry): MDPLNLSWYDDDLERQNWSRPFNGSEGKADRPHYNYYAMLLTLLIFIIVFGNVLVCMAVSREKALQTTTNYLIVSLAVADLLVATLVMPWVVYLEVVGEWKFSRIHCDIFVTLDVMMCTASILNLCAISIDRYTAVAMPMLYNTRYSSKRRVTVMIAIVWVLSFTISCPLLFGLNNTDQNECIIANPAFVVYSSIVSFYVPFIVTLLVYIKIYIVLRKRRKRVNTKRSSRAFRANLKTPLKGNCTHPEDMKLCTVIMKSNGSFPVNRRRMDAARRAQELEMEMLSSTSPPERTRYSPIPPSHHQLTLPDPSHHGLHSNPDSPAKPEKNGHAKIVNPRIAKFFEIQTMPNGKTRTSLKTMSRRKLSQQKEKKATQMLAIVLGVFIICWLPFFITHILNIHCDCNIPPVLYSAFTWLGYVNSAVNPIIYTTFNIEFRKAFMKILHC
T2 sequence (P18901 whole entry): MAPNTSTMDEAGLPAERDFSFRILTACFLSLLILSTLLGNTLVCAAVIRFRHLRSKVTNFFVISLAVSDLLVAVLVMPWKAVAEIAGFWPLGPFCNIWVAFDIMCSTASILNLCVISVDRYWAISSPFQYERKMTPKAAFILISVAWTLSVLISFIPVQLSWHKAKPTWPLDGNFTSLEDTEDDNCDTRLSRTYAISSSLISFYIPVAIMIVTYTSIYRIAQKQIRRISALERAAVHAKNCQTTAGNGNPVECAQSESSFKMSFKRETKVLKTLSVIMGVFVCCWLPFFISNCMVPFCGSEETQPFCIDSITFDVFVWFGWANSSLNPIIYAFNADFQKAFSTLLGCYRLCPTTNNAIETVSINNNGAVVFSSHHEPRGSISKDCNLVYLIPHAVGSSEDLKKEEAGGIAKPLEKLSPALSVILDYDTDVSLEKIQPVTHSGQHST

IC50 [1] [nM] | IC50 [2] [nM] | IC50 [3] [nM] | IC50 [4] [nM] | Compound
196 | > 10000 | – | – | CCN1CCC[C@H]1CNC(=O)c1c(O)ccc(I)c1OC
– | > 10000 | – | – | CCN1CCC[C@H]1CNC(=O)c1c(O)c(Cl)cc(Cl)c1OC [RACLOPRIDE]
1.71 | > 10000 | > 10000 | 1.2 | CCN1CCC[C@H]1CNC(=O)c1c(OC)ccc(I)c1O [IOLOPRIDE]
